Patent US10562887B2, “Triazolones and tetrazolones as inhibitors of ROCK” (BRISTOL-MYERS SQUIBB COMPANY, priority 2016, dated 2020)
Where two headings read alike, the source gives them in different places.

Legend:
rat stroke model = conditions: cited from earlier work
[1] = tested on: IL-1 beta-induced coronary stenosis; conditions: long term treatment, porcine model; cited from earlier work
ROCK2 = ROCK2 (Homo sapiens (Human), UniProt O75116); assay: ROCK2 assay (peptide phosphorylation, LABCHIP 3000 Reader); type: biochemical; conditions: 5 μM ATP, 1.5 μM peptide substrate
In short: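 Human ROCK2 reaction in 20 mM HEPES pH 7.5, 20 mM MgCl2, 0.015% Brij-35, 4 mM DTT, with 5 μM ATP and 1.5 μM FITC-labelled peptide, DMSO <2%. Stopped with EDTA; phosphorylated and unphosphorylated peptide separated by microfluidic mobility shift. IC50 from dose-response curve fit.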

neointimal formation = conditions: rats; cited from earlier work
[2] = tested on: congestive heart failure in Dahl salt-sensitive rats; conditions: cited from earlier work
[3] = tested on: spontaneously hypertensive rat, renal hypertensive rat and deoxycortisone acetate salt hypertensive rat models; conditions: cited from earlier work

Sequence of ROCK2 (O75116 whole entry, species assumed): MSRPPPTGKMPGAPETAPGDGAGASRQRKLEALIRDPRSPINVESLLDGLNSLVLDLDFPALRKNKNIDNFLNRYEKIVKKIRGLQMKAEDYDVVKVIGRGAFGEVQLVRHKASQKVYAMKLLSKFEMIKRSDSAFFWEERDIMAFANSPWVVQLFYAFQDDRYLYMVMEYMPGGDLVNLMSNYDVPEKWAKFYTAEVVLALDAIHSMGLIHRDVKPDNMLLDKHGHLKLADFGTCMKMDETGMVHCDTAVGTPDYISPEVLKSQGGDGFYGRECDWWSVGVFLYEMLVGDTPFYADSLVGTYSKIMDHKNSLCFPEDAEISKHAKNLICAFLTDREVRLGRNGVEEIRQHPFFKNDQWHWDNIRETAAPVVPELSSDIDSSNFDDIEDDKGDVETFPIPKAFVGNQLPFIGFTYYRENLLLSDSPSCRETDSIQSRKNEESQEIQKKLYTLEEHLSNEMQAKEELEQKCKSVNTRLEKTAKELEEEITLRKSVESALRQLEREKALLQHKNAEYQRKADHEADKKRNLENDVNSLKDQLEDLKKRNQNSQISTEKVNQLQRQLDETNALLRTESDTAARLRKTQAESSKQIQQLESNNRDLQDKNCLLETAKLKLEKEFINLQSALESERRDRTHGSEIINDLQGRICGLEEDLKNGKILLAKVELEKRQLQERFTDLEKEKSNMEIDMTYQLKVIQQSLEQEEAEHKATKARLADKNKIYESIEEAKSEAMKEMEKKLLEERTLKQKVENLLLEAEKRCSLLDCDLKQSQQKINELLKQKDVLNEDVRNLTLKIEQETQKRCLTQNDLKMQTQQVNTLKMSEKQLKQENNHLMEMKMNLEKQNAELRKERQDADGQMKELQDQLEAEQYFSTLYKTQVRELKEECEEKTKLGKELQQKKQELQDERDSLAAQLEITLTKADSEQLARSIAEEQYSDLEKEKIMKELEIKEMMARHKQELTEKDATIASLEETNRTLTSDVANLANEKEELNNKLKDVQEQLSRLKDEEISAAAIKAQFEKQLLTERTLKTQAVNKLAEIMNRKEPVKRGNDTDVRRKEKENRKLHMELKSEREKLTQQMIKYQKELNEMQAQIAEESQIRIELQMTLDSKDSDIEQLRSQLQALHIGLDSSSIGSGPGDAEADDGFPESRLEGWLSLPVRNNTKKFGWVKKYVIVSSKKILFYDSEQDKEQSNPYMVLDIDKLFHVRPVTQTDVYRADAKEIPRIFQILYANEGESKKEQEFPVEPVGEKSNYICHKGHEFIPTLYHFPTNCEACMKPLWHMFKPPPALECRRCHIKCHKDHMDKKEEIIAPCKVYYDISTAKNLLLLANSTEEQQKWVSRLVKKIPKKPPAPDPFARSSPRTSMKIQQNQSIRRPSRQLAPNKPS

Compound | IC50 (ROCK2) [nM] | other results
O=S(=O)(c1cccc2cnccc12)N1CCCNCC1 [fasudil] |  | infarct size and neurologic deficit (rat stroke model): reduce both the infarct size and neurologic deficit; coronary constrictive remodeling [1]: promote a regression; coronary stenosis [1]: progressively reduce coronary stenosis
COc1cc(-c2cn[nH]c2)ccc1-n1c(C)nn(Cc2cccc(F)c2)c1=O [Example 74, 1-(3-fluorobenzyl)-4-(2-methoxy-4-(1H-pyrazol-4-yl)phenyl)-3-methyl-1H-1,2,4-triazol-5(4H)-one] | 250 to 2000 | 
CCc1cc(-n2ncn(Cc3ccccc3)c2=O)ccc1-c1cn[nH]c1 [Example 54, 4-benzyl-1-(3-ethyl-4-(1H-pyrazol-4-yl)phenyl)-1H-1,2,4-triazol-5(4H)-one] | 50 to 250 | 
O=c1n(-c2ccc(-c3cn[nH]c3)cc2)nc(CO)n1Cc1cccc(OC(F)F)c1 [Example 131, 1-(4-(1H-pyrazol-4-yl)phenyl)-4-(3-(difluoromethoxy)benzyl)-3-(hydroxymethyl)-1H-1,2,4-triazol-5(4H)-one] | 5 to 50 | 
CC(C)(O)c1nn(-c2ccc(-c3cn[nH]c3)cc2)c(=O)n1Cc1cccc(OC(F)F)c1 [Example 139, 1-(4-(1H-pyrazol-4-yl)phenyl)-4-(3-(difluoromethoxy)benzyl)-3-(2-hydroxypropan-2-yl)-1H-1,2,4-triazol-5(4H)-one] | 50 to 250 | 
CCc1cc(-n2ncn(Cc3ccc(F)cc3)c2=O)ccc1-c1cn[nH]c1 [Example 43, 1-(3-ethyl-4-(1H-pyrazol-4-yl)phenyl)-4-(4-fluorobenzyl)-1H-1,2,4-triazol-5(4H)-one] | 250 to 2000 | 
COc1cc(-n2ncn(Cc3cccc(C#N)c3)c2=O)ccc1-c1cn[nH]c1 [Example 35, 3-((1-(3-methoxy-4-(1H-pyrazol-4-yl)phenyl)-5-oxo-1H-1,2,4-triazol-4(5H)-yl)methyl)benzonitrile] | 50 to 250 | 
COc1cc(-n2nnn(Cc3cccc(F)c3)c2=O)ccc1-c1cn[nH]c1 [Example 180, 1-(3-fluorobenzyl)-4-(3-methoxy-4-(1H-pyrazol-4-yl)phenyl)-1H-tetrazol-5(4H)-one] | 5 to 50 | 
C[C@@H](N)[C@H]1CC[C@H](C(=O)Nc2ccncc2)CC1 [Example Y-27632, Y-27632] |  | neointimal formation (neointimal formation): inhibited neointimal formation; ventricular hypertrophy, fibrosis and function [2]: improve; blood pressure ([3]; control rats): only a minor effect; blood pressure ([3]; three rat models of hypertension): significantly decrease blood pressure
COc1cccc(Cn2cnn(-c3ccc(-c4cn[nH]c4)cc3)c2=O)c1F [Example 51, 1-(4-(1H-pyrazol-4-yl)phenyl)-4-(2-fluoro-3-methoxybenzyl)-1H-1,2,4-triazol-5(4H)-one] | 5 to 50 | 
COc1cccc(Cn2c(CN3CCCC3)nn(-c3ccc(-c4cn[nH]c4)cc3)c2=O)c1 [Example 146, 1-(4-(1H-pyrazol-4-yl)phenyl)-4-(3-methoxybenzyl)-3-(pyrrolidin-1-ylmethyl)-1H-1,2,4-triazol-5(4H)-one] | 5 to 50 | 
COc1cc(-c2cn[nH]c2)ccc1-n1cnn(Cc2cc(F)ccc2F)c1=O [Example 13, 1-(2,5-difluorobenzyl)-4-(2-methoxy-4-(1H-pyrazol-4-yl)phenyl)-1H-1,2,4-triazol-5(4H)-one] | 250 to 2000 | 
COc1cccc(Cn2ncn(-c3ccc(-c4cn[nH]c4)c(OC)c3)c2=O)c1 [Example 6, 4-(3-methoxy-4-(1H-pyrazol-4-yl)phenyl)-1-(3-methoxybenzyl)-1H-1,2,4-triazol-5(4H)-one] | 5 to 50 | 
COc1ccc(Cn2c(CO)nn(-c3ccc(-c4cn[nH]c4)cc3)c2=O)cc1F [Example 159, 1-(4-(1H-pyrazol-4-yl)phenyl)-4-(3-fluoro-4-methoxybenzyl)-3-(hydroxymethyl)-1H-1,2,4-triazol-5(4H)-one] | 250 to 2000 | 
CCc1cc(-n2nc(C)n(Cc3c(F)cccc3F)c2=O)ccc1-c1cn[nH]c1 [Example 116, 4-(2,6-difluorobenzyl)-1-(3-ethyl-4-(1H-pyrazol-4-yl)phenyl)-3-methyl-1H-1,2,4-triazol-5(4H)-one] | 250 to 2000 | 
O=c1n(-c2ccc(-c3cn[nH]c3)cc2)nc(CO)n1Cc1cccc(F)c1 [Example 128, 1-(4-(1H-pyrazol-4-yl)phenyl)-4-(3-fluorobenzyl)-3-(hydroxymethyl)-1H-1,2,4-triazol-5(4H)-one] | 5 to 50 | 

Further lines, with some results ahead:

IC50 (ROCK2) [nM] | Compound | other results
250 to 2000 | COc1cc(F)cc(Cn2nc(C)n(-c3ccc(-c4cn[nH]c4)cc3)c2=O)c1 [Example 72, 4-(4-(1H-pyrazol-4-yl)phenyl)-1-(3-fluoro-5-methoxybenzyl)-3-methyl-1H-1,2,4-triazol-5(4H)-one] | 
5 to 50 | CCc1cc(-n2nc(C)n(Cc3cccc(OC)c3)c2=O)ccc1-c1cn[nH]c1 [Example 105, 1-(3-ethyl-4-(1H-pyrazol-4-yl)phenyl)-4-(3-methoxybenzyl)-3-methyl-1H-1,2,4-triazol-5(4H)-one] | 
250 to 2000 | COc1cc(-c2cn[nH]c2)ccc1-n1c(C)nn(CCc2ccccc2)c1=O [Example 77, 4-(2-methoxy-4-(1H-pyrazol-4-yl)phenyl)-3-methyl-1-phenethyl-1H-1,2,4-triazol-5(4H)-one] | 
< 5 | COc1cc(Cn2c(C)nn(-c3ccc(-c4cn[nH]c4)cc3)c2=O)ccc1F [Example 121, 1-(4-(1H-pyrazol-4-yl)phenyl)-4-(4-fluoro-3-methoxybenzyl)-3-methyl-1H-1,2,4-triazol-5(4H)-one] | 
250 to 2000 | CCc1cc(-n2nc(C)n(C(C)c3ccccc3)c2=O)ccc1-c1cn[nH]c1 (stereo not drawn) [Example 109, 1-(3-ethyl-4-(1H-pyrazol-4-yl)phenyl)-3-methyl-4-(1-phenylethyl)-1H-1,2,4-triazol-5(4H)-one] | 
< 5 | COc1cccc(Cn2cnn(-c3ccc(-c4ccnc5[nH]ccc45)cc3)c2=O)c1 [Example 169, 1-(4-(1H-pyrrolo[2,3-b]pyridin-4-yl)phenyl)-4-(3-methoxybenzyl)-1H-1,2,4-triazol-5(4H)-one] | 
5 to 50 | CCc1cc(-n2nc(C)n(Cc3cc(F)cc(F)c3)c2=O)ccc1-c1cn[nH]c1 [Example 108, 4-(3,5-difluorobenzyl)-1-(3-ethyl-4-(1H-pyrazol-4-yl)phenyl)-3-methyl-1H-1,2,4-triazol-5(4H)-one] | 
5 to 50 | COc1cccc(Cn2c(C)nn(-c3ccc(-c4ccnc(N)n4)cc3)c2=O)c1 [Example 166, 1-(4-(2-aminopyrimidin-4-yl)phenyl)-4-(3-methoxybenzyl)-3-methyl-1H-1,2,4-triazol-5(4H)-one] | 
5 to 50 | COc1cc(F)cc(Cn2c(CN3CCNCC3)nn(-c3ccc(-c4cn[nH]c4)cc3)c2=O)c1 [Example 152, 1-(4-(1H-pyrazol-4-yl)phenyl)-4-(3-fluoro-5-methoxybenzyl)-3-(piperazin-1-ylmethyl)-1H-1,2,4-triazol-5(4H)-one] | 
< 5 | COc1cc(-n2nc(C)n(Cc3cccc(F)c3)c2=O)ccc1-c1cn[nH]c1 [Example 90, 4-(3-fluorobenzyl)-1-(3-methoxy-4-(1H-pyrazol-4-yl)phenyl)-3-methyl-1H-1,2,4-triazol-5(4H)-one] | 
50 to 250 | COc1cccc(Cn2ncn(-c3ccc(-c4cn[nH]c4)cc3OC)c2=O)c1 [Example 11, 4-(2-methoxy-4-(1H-pyrazol-4-yl)phenyl)-1-(3-methoxybenzyl)-1H-1,2,4-triazol-5(4H)-one] | 
< 5 | COc1cccc(Cn2c(C)nn(-c3ccc(-c4cn[nH]c4)c(OC)c3)c2=O)c1 [Example 89, 1-(3-methoxy-4-(1H-pyrazol-4-yl)phenyl)-4-(3-methoxybenzyl)-3-methyl-1H-1,2,4-triazol-5(4H)-one] | 
